Conditions: ATF2W alone; 222 nm, 1 to 95 °C, pH 7.4, 10 mM TCEP.HCl; two-state model
Protocol: (DMF). Deprotection was performed by addition of 0.75 mL 30% pyrrolidine into the coupling reaction. Peptides were acetylated at the N-terminus by a final reaction with 3x acetic anhydride, 4.5x diisopropylethylamine in DMF for one hour at room temperature. Incubation in a cleavage mixture (95% TFA, 2.5% triisopropylsilane, 2.5% H2O, 10 mL) for 4 h at room temperature cleaved the peptide from the resin and removed side chain protecting groups.
2.5% DODT was added to the cleavage cocktail for ATF2. The resin was removed by filtration and cleaved peptides were precipitated in diethyl ether at -80°C and centrifuged.
This pellet was washed a further four times with diethyl ether before it was dried overnight at room temperature. Peptides were resuspended in 1:1 water:acetonitrile (0.1% TFA) before purification using RP-HPLC with a Jupiter Proteo column (4-μm particle size, 90 Å pore size, 250 × 10 mm; Phenomenex) using a water:acetonitrile gradient (0.1% TFA). Peptide masses and purity (>95%) were verified by electrospray ionisation mass spectrometry. Upon solubilising in buffer, peptides were centrifuged to ensure insoluble/aggregated material was removed before peptide concentration determination.
Circular Dichroism: An Applied Photophysics Chirascan was used for CD measurements, with a 200 µL sample in a 1 mm path length CD cell. […]

Ac-LEQQLEELAQENEELEKEAAELQQQIARLKNEVAKLENENKTLDREIKALQREYSHKSD-NH2 [ATF2W]
Tm: 37 °C

— PMC12648313, “Enhancing the Efficacy, Utility, and Throughput of the Transcription Block Survival Peptide Library Screening Platform” (JACS Au, 2025)
